The values below come from patent US12673926B2, “Tetrazine compounds for in vivo imaging” (KØBENHAVNS UNIVERSITET, priority 2018, dated 2026).

Structures are written as SMILES.

The nature of one data set: TCO click ability. The following applies: TCO-KSMO in PBS, TLC. The method, then: To a solution of TCO-KSMO (the polymer) 500 μL (1 mg/mL) PBS was added 100 μL of the formulated tetrazine.
In given time intervals, 2 μL of the solution was withdrawn and quenched with 20 μL of a 3 mg/mL bispyridine-tetrazine solution. TLC (EtOAc) determined the fraction of tetrazines reacted to the TCO. (tetrazine; front, 1,4 adduct; baseline)

The nature of data set [1]: Rate constant measurements (stopped-flow, pseudo-first order). The following applies: at 25° C. The method, then: Based on these encouraging results, a study was performed to investigate whether the identified labeling conditions could be applied to Tzs that are more reactive. In this respect, Tz's with stepwise increased reactivity have been tested. […] Synthesis of respective reference compounds and precursors was completed in the same manner as discussed before. Respective second-order rate constants were determined via stopped-flow measurements. […] Radiolabeling was studied using the best aliquot conditions identified in our previous experiments. RCC for [^18F]7, [18F]8 and [^18F]9 were 35%, 30%, and 33%, respectively.
[…] Measurements were performed using a SX20 stopped flow photometer (Applied Photophysics, UK) equipped with a 360 nm LED light source and a photomultiplier type R374 in combination with a 400 nm longpass filter as detector.

Data set [2] in a line: Blood stability (TLC data). It counts as in vitro ADME. The following applies: mice whole blood, 37° C., 0 min.
Data set [3] is described as follows: Blood stability (TLC data). It counts as in vitro ADME. Particulars: mice whole blood, 37° C. The method, then: (§1) Blood stability was tested by mixing 250 μL mice whole blood with 250 μL of the formulated Tz, the mixture was heated and shaken at 37° C. At given time points 1, 2, 3, 5, 10, 20, 60 and 180 min, 20 μL were withdrawn and cooled to 0° C. At the same time points, 20 μL were added to a 20 μL of a solution of 1 mg/mL KSMO (TCO-Polymer) in PBS and left at RT for 1 h.
(§2) The mixtures were then centrifuged at 4200 rpm for 3 min, before ACN (40 μL) was added and centrifuged again for 3 min at 4200 rpm. The supernatant was withdrawn and analyzed with TLC and/or HPLC.

The nature of data set [4]: TCO click ability after incubation in blood. Also noted: species or system mice. The following applies: KSMO 1 h RT. The method, then: as §1, §2
Data set [5] in a line: Pretargeted PET/CT imaging with TCO-BP pretreatment. It counts as in vivo, Balb/c mice. The following applies: BP-TCO pretreated mice vs controls; i.v.; 60 min dynamic PET. The method, then:
All animal studied were approved by the Danish Animal Welfare Council, ministry of Justice. Five weeks old female Balb/c mice (Charles River) were acclimatized for one week with access to water and chow ad libitum. Trans-cyclooctene functionalized bisphosphonates (TCO-BP's) (100 μg. 100 μl PBS) were injected i.v. (n=2), and 1 hour later animals were administered i.v. with [^18F]9 (ca 4MBq) via the tail vein.
The animals were scanned on a dedicated small animal PET/CT scanner (Siemens) during which they were kept anesthetized by breathing sevoflurane and their temperature maintained by heating pad. Immediately after injection of [^18F]9, the animals were moved to a small animal PET/CT scanner and a 60 min dynamic PET acquisition (energy window of 350-650 KeV and a time resolution of 6 ns) was performed followed by a CT scan (360 projections, 65 kV, 500 ρA and 400 ms). Sinograms from PET scans were framed and reconstructed using a 3-dimensional maximum a posteriori algorithm with CT-based attenuation correction. PET and CT images were co-registered and analysed using Inveon software (Siemens). The mean percentage of injected dose per grams (% ID/g) in different tissues was extracted by manually creating regions of interest on fused PET/CT images.
The bioorthogonal chemistry employed is illustrated in FIG. 1. […]

[6] abbreviates: after 0 min in mice whole blood at 37° C.
Where [7] appears, read: after 1 min in mice whole blood at 37° C.
Where [8] appears, read: after 2 min in mice whole blood at 37° C.
[9] abbreviates: after 3 min in mice whole blood at 37° C.
The mark [10] stands for this setting: after 5 min in mice whole blood at 37° C.
The mark [11] stands for this setting: after 10 min in mice whole blood at 37° C.
The mark [12] stands for this setting: after 20 min in mice whole blood at 37° C.
[13] abbreviates: after 60 min in mice whole blood at 37° C.
Where [14] appears, read: after 180 min in mice whole blood at 37° C.

Consider `Cc1nnc(-c2ccc([18F])cc2)nn1` [[^18F]6], for which the “fraction of tetrazines reacted to the TCO” value (“fraction” for short) in the data set “TCO click ability” (30 sec), in the data set “TCO click ability” (1 min), in “TCO click ability” (2 min), in “TCO click ability” (3 min) and in “TCO click ability” (5 min) was 100% in each case. Also, the “Second-order rate constant k2” value in data set [1] worked out at 2.25 M⁻¹ s⁻¹.
Take `Cc1nnc(-c2cccc([18F])c2)nn1` [[^18F]7]: the Stability in data set [2] is reported as 94%; in data set [3] (1 min), 95%; in data set [3] (2 min), 96%; in data set [3] (3 min) it was 95%; in data set [3] (5 min), 95%; in data set [3] (10 min), 96%. Further, the values for the Stability in data set [3] (20 min), in data set [3] (60 min) and in data set [3] (180 min) were 96%, 96% and 77%, respectively. In addition, the “fraction” value in the data set “TCO click ability” (30 sec), in “TCO click ability” (1 min), in the data set “TCO click ability” (2 min), in “TCO click ability” (3 min) and in “TCO click ability” (5 min) was 100% in each case. Further, the TCO click ability in data set [4] (setting [6]), in data set [4] (setting [7]), in data set [4] (setting [8]), in data set [4] (setting [9]), in data set [4] (setting [10]) and in data set [4] (setting [11]) was 100% each time. Moreover, the TCO click ability in data set [4] (setting [12]), in data set [4] (setting [13]) and in data set [4] (setting [14]) was 100% each time.
Take `[18F]c1ccc(-c2nncnn2)cc1` [[^18F]8]: the Stability in data set [2] stood at 90%; in data set [3] (1 min), 72%; in data set [3] (2 min) it was 85%; in data set [3] (3 min) it was 89%; in data set [3] (5 min), 88%; in data set [3] (10 min), 90%. The Stability in data set [3] (20 min) stood at 89%; in data set [3] (60 min) it was 88%; in data set [3] (180 min), 82%. Besides, the “fraction” value in the data set “TCO click ability” (1 min), in the data set “TCO click ability” (2 min), in “TCO click ability” (3 min) and in the data set “TCO click ability” (5 min) was 100% in each case. In data set [1], the “Second-order rate constant k2” value amounted to 159 M⁻¹ s⁻¹. For the same compound, the TCO click ability in data set [4] (setting [6]), in data set [4] (setting [7]), in data set [4] (setting [8]), in data set [4] (setting [9]), in data set [4] (setting [10]) and in data set [4] (setting [11]) was 100% each time. Moreover, the TCO click ability in data set [4] (setting [12]), in data set [4] (setting [13]) and in data set [4] (setting [14]) was 100% each time.
As for `[18F]c1cccc(-c2nncnn2)c1` [[^18F]9], the “fraction” value in the data set “TCO click ability” (15 sec), in the data set “TCO click ability” (30 sec), in the data set “TCO click ability” (1 min), in “TCO click ability” (2 min) and in “TCO click ability” (3 min) was 100% each time. Moreover, in data set [1], the “Second-order rate constant k2” value was 222 M⁻¹ s⁻¹. Moreover, in data set [5], the “PET uptake in bones (knee), the target region of BP-TCOs, compared to controls” value is “higher uptake”. Moreover, the “PET uptake in control region (the heart), treated vs non-treated mice” value in data set [5] is given as “no differences could be detected”.
